# What was measured:
# Conditions in all cases: exposure time: 72 h
# E13 [1] = patient-derived glioblastoma stem cells of classical subtype; experiment: surviving fraction (nuclei count normalised to DMSO); higher = more cells surviving (less toxic)
# E28 [2] = patient-derived glioblastoma stem cells of classical subtype; experiment: as above
# E31 [3] = patient-derived glioblastoma stem cells of proneural subtype; experiment: as above
# E34 [4] = patient-derived glioblastoma stem cells of proneural subtype; experiment: as above
# E21 [5] = patient-derived glioblastoma stem cells of mesenchymal subtype; experiment: as above
# E57 [6] = patient-derived glioblastoma stem cells of mesenchymal subtype; experiment: as above
# FT3469 [7] = normal neural stem cell line; experiment: as above
# E13 [8] = experiment: phenotypic distance (Euclidean, principal components) from DMSO controls (arbitrary units); higher = stronger morphological change
# E28 [9] = experiment: as above
# E31 [10] = experiment: as above
# E34 [11] = experiment: as above
# E21 [12] = experiment: as above
# E57 [13] = experiment: as above
# FT3469 [14] = experiment: as above
# 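For phenotypic distance (Euclidean, principal components) from DMSO controls in this document: cell Painting imaging in 384-well plates, CellProfiler features reduced to at least 20 principal components, Euclidean distance versus same-plate DMSO vehicle wells (0.1% v/v), median over six images per well.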
# 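For surviving fraction (nuclei count normalised to DMSO) in this document: nuclei counted by high-content imaging of Hoechst-stained cells in laminin-coated 384-well plates, relative to 0.1% DMSO vehicle wells, with staurosporine as cell-death control.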
smiles,measurement,setting,value
COc1cc(/C=C/C(=O)N2CCC=CC2=O)cc(OC)c1OC [Piperlongumine],surviving fraction,E13 [1]; 4.1 nM,0.958
same,surviving fraction,E13 [1]; 12.3 nM,0.883
same,surviving fraction,E13 [1]; 37 nM,1.05
same,surviving fraction,E13 [1]; 111.1 nM,0.818
same,surviving fraction,E13 [1]; 333.3 nM,0.823
same,surviving fraction,E13 [1]; 1000 nM,0.88
same,surviving fraction,E13 [1]; 3000 nM,0.767
same,surviving fraction,E28 [2]; 4.1 nM,1.02
same,surviving fraction,E28 [2]; 12.3 nM,1.1
same,surviving fraction,E28 [2]; 37 nM,1.13
same,surviving fraction,E28 [2]; 111.1 nM,0.988
same,surviving fraction,E28 [2]; 333.3 nM,1.03
same,surviving fraction,E28 [2]; 1000 nM,0.538
same,surviving fraction,E28 [2]; 3000 nM,0.256
same,surviving fraction,E31 [3]; 4.1 nM,0.957
same,surviving fraction,E31 [3]; 12.3 nM,1.09
same,surviving fraction,E31 [3]; 37 nM,1.19
same,surviving fraction,E31 [3]; 111.1 nM,1.12
same,surviving fraction,E31 [3]; 333.3 nM,0.938
same,surviving fraction,E31 [3]; 1000 nM,0.684
same,surviving fraction,E31 [3]; 3000 nM,0.00892
same,surviving fraction,E34 [4]; 4.1 nM,0.873
same,surviving fraction,E34 [4]; 12.3 nM,0.984
same,surviving fraction,E34 [4]; 37 nM,1.11
same,surviving fraction,E34 [4]; 111.1 nM,1.04
same,surviving fraction,E34 [4]; 333.3 nM,1.06
same,surviving fraction,E34 [4]; 1000 nM,0.863
same,surviving fraction,E34 [4]; 3000 nM,0.559
same,surviving fraction,E21 [5]; 4.1 nM,1.01
same,surviving fraction,E21 [5]; 12.3 nM,0.979
same,surviving fraction,E21 [5]; 37 nM,0.997
same,surviving fraction,E21 [5]; 111.1 nM,0.997
same,surviving fraction,E21 [5]; 333.3 nM,0.908
same,surviving fraction,E21 [5]; 1000 nM,0.609
same,surviving fraction,E21 [5]; 3000 nM,0.104
same,surviving fraction,E57 [6]; 4.1 nM,1.02
same,surviving fraction,E57 [6]; 12.3 nM,0.96
same,surviving fraction,E57 [6]; 37 nM,1.03
same,surviving fraction,E57 [6]; 111.1 nM,1.03
same,surviving fraction,E57 [6]; 333.3 nM,1.06
same,surviving fraction,E57 [6]; 1000 nM,1
same,surviving fraction,E57 [6]; 3000 nM,0.285
same,surviving fraction,FT3469 [7]; 4.1 nM,1.05
same,surviving fraction,FT3469 [7]; 12.3 nM,0.946
same,surviving fraction,FT3469 [7]; 37 nM,0.901
same,surviving fraction,FT3469 [7]; 111.1 nM,0.983
same,surviving fraction,FT3469 [7]; 333.3 nM,0.881
same,surviving fraction,FT3469 [7]; 1000 nM,0.866
same,surviving fraction,FT3469 [7]; 3000 nM,0.7
same,phenotypic distance,E13 [8]; 4.1 nM,0.433
same,phenotypic distance,E13 [8]; 12.3 nM,0.675
same,phenotypic distance,E13 [8]; 37 nM,0.516
same,phenotypic distance,E13 [8]; 111.1 nM,2.59
same,phenotypic distance,E13 [8]; 333.3 nM,0.883
same,phenotypic distance,E13 [8]; 1000 nM,0.903
same,phenotypic distance,E13 [8]; 3000 nM,1.87
same,phenotypic distance,E28 [9]; 4.1 nM,0.727
same,phenotypic distance,E28 [9]; 12.3 nM,1.04
same,phenotypic distance,E28 [9]; 37 nM,0.697
same,phenotypic distance,E28 [9]; 111.1 nM,0.848
same,phenotypic distance,E28 [9]; 333.3 nM,0.74
same,phenotypic distance,E28 [9]; 1000 nM,2.27
same,phenotypic distance,E28 [9]; 3000 nM,5.12
same,phenotypic distance,E31 [10]; 4.1 nM,1.19
same,phenotypic distance,E31 [10]; 12.3 nM,0.591
same,phenotypic distance,E31 [10]; 37 nM,0.723
same,phenotypic distance,E31 [10]; 111.1 nM,0.471
same,phenotypic distance,E31 [10]; 333.3 nM,1.14
same,phenotypic distance,E31 [10]; 1000 nM,1.51
same,phenotypic distance,E31 [10]; 3000 nM,10.8
same,phenotypic distance,E34 [11]; 4.1 nM,1.26
same,phenotypic distance,E34 [11]; 12.3 nM,0.821
same,phenotypic distance,E34 [11]; 37 nM,1.16
same,phenotypic distance,E34 [11]; 111.1 nM,0.677
same,phenotypic distance,E34 [11]; 333.3 nM,0.524
same,phenotypic distance,E34 [11]; 1000 nM,0.889
same,phenotypic distance,E34 [11]; 3000 nM,1.82
same,phenotypic distance,E21 [12]; 4.1 nM,1.09
same,phenotypic distance,E21 [12]; 12.3 nM,0.626
same,phenotypic distance,E21 [12]; 37 nM,0.701
same,phenotypic distance,E21 [12]; 111.1 nM,0.313
same,phenotypic distance,E21 [12]; 333.3 nM,0.682
same,phenotypic distance,E21 [12]; 1000 nM,3.07
same,phenotypic distance,E21 [12]; 3000 nM,9.28
same,phenotypic distance,E57 [13]; 4.1 nM,1.56
same,phenotypic distance,E57 [13]; 12.3 nM,0.849
same,phenotypic distance,E57 [13]; 37 nM,0.56
same,phenotypic distance,E57 [13]; 111.1 nM,0.314
same,phenotypic distance,E57 [13]; 333.3 nM,0.518
same,phenotypic distance,E57 [13]; 1000 nM,1.93
same,phenotypic distance,E57 [13]; 3000 nM,6.93
same,phenotypic distance,FT3469 [14]; 4.1 nM,0.686
same,phenotypic distance,FT3469 [14]; 12.3 nM,0.732
same,phenotypic distance,FT3469 [14]; 37 nM,0.828
same,phenotypic distance,FT3469 [14]; 111.1 nM,0.586
same,phenotypic distance,FT3469 [14]; 333.3 nM,1.07
same,phenotypic distance,FT3469 [14]; 1000 nM,1.12
same,phenotypic distance,FT3469 [14]; 3000 nM,3.88

# From the supplement of paper PMC13207355
